This passage reports IC50 results from patent US8377967B2, “Piperidine derivative” (Nippon Zoki Pharmaceutical Co., Ltd., priority 2008, dated 2013).

A word on the IC50: it is the concentration that gives 50% inhibition. Low values mean inhibition by little substance, high ones a need for much substance.

Counter-ions that a name gives are not always drawn.

The target in the assay is human histamine H1 receptor (Homo sapiens, UniProt P35367). The assay can be described thus: In vitro human histamine H1 receptor binding experiment ([3H]pyrilamine). Conditions: HEK293A cells stably expressing human histamine H1 receptor, [3H]pyrilamine 3 nmol/L, room temperature 60 minutes. As for the experimental part: Recombinant human histamine H1 receptor plasmid (prepared by Invitrogen) was transfected to HEK293A cells with Lipofectamine 2000 (manufactured by Invitrogen). Cells stably expressing human histamine H1 receptor were screened with Geneticin (manufactured by Invitrogen). The cells were continued to be cultured using a Dulbecco's Modified Eagle Medium containing 10% fetal bovine serum, 0.1 mmol/L MEM Non-Essential Amino Acids Solution, 2 mmol/L L-glutamine and 0.7 mg/mL Geneticin in a 5% CO2 incubator at 37° C. The cells stably expressing human histamine H1 receptor were prepared using 50 mmol/L Tris-HCl (pH 7.5) (hereinafter referred to as buffer) containing 0.1% bovine serum albumin, so as to have a concentration of 3×10^6 cells/mL, to give a cell sample preparation. Fifty microliters of the buffer, 50 μl of a test substance solution at various concentrations, and 50 μL of [^3H]pyrilamine solution (final concentration: 3 nmol/L) were added to each of the wells on the 96-well plate, and stirred, and 100 μL of the cell sample preparation was then added thereto (at a concentration of 3×10^5 cells/well) to initiate the reaction.
human histamine H1 receptor, sequence (P35367 whole entry): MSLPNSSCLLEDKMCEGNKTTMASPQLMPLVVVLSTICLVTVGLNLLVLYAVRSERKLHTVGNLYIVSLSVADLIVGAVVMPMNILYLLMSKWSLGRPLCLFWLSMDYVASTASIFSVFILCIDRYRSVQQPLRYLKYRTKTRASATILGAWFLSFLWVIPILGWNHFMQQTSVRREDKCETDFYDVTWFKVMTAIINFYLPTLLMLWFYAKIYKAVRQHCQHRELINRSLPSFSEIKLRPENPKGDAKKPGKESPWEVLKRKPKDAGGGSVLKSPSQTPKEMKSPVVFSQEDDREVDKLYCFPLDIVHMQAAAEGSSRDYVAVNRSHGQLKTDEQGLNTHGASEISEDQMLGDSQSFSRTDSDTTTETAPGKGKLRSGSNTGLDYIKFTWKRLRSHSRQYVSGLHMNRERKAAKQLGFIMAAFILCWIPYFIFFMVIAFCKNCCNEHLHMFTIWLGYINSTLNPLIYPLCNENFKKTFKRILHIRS
The cells were incubated at room temperature for 60 minutes, and then filtered on UniFilter GF/C plate (manufactured by Packard) immersed in 0.5% polyethyleneimine using a cell harvester (IH-110, manufactured by INNOTECH CORPORATION), to stop the reaction, and the plate was washed with the buffer. The plate after washing was sufficiently dried, and 20 μL of a scintillator (MaxiLight, manufactured by Hidex) was added thereto, and count per minute (cpm) was measured with a multi-labeled microplate reader (Plate Chameleo II, manufactured by Hidex). The nonspecific binding was cpm in a case where 30 μmol/L pyrilamine was added. The experiments were carried out at n=3, and at least repeated 3 times.
As for `CC(C(=O)NCCO)c1ccc2c(c1)C(=C1CCN(C)CC1)c1sccc1CO2` (centres unmarked) [Compound 64, N-(2-Hydroxyethyl)-{2-[4-(1-methylpiperidin-4-ylidene)-4,10-dihydro-9-oxa-3-thiabenzo[f]azulen-6-yl]}propionamide], the half-inhibitory concentration (IC50) was 48.6 nM.
Then `CN1CCC(=C2c3cc(C(=O)O)ccc3CCc3ccsc32)CC1` [Compound 121, 4-(1-Methylpiperidin-4-ylidene)-9,10-dihydro-4H-3-thiabenzo[f]azulene-6-carboxylic acid], with 94.7 nM; and `CN1CCC(=C2c3ccccc3CCc3sc(C(N)=O)cc32)CC1` [Compound 31, [4-(1-Methylpiperidin-4-ylidene)-9,10-dihydro-4H-1-thiabenzo[f]azulen-2-yl]carboxamide], with 16.4 nM.
With `CN1CCC(=C2c3cc(CO)ccc3CCc3sccc32)CC1` [Compound 104, 6-(2-Hydroxymethyl)-4-(1-methylpiperidin-4-ylidene)-9,10-dihydro-4H-1-thiabenzo[f]azulene] the figure was 4.8 nM; with `CN1CCC(=C2c3ccccc3CCc3sc(C(=O)NCC(F)(F)F)cc32)CC1` [Compound 79, N-(2,2,2-Trifluoroethyl)-{[4-(1-methylpiperidin-4-ylidene)-9,10-dihydro-4H-1-thiabenzo[f]azulen-2-yl]}carboxamide], 28.2 nM; with `CC(C(=O)O)c1cc2c(s1)C(=C1CCN(C)CC1)c1ccccc1CC2` (centres unmarked) [Compound 60, 2-[4-(1-Methylpiperidin-4-ylidene)-9,10-dihydro-4H-3-thiabenzo[f]azulen-2-yl]propionic acid hydrochloride], 59.1 nM.
On to `CN1CCC(=C2c3ccccc3CCc3sc(C(=O)NO)cc32)CC1` [Compound 78, N-Hydroxy-{[4-(1-methylpiperidin-4-ylidene)-9,10-dihydro-4H-1-thiabenzo[f]azulen-2-yl]}carboxamide], for which the half-maximal inhibitory concentration (IC50) was found to be 65.1 nM.
Then `C=CCNC(=O)c1cc2c(s1)CCc1ccccc1C2=C1CCN(C)CC1` [Compound 86, N-Allyl-{[4-(1-methylpiperidin-4-ylidene)-9,10-dihydro-4H-1-thiabenzo[f]azulen-2-yl]}carboxamide], with 21.2 nM.
Molecule `CCN1CCC(=C2c3cc(CCCC(=O)OC)ccc3OCc3ccsc32)CC1` [Compound 141, Methyl 4-[4-(1-ethylpiperidin-4-ylidene)-4,10-dihydro-9-oxa-3-thiabenzo[f]azulen-6-yl]butyrate hydrochloride] came in with a half-inhibitory concentration (IC50) of 6.77 nM.
Molecule `CCOC(=O)c1cc2c(s1)CCc1ccccc1C2=C1CCN(CCO)CC1` [Compound 105, Ethyl {4-[1-(2-hydroxyethyl)piperidin-4-ylidene]-9,10-dihydro-4H-1-thiabenzo[f]azulen-2-yl}carboxylate] had an IC50 of 50.2 nM.
`CCOC(=O)Cc1ccc2c(c1)C(=C1CCN(C)CC1)c1ccsc1CC2` [Compound 106, Ethyl[4-(1-methylpiperidin-4-ylidene)-9,10-dihydro-4H-1-thiabenzo[f]azulen-6-yl]acetate hydrochloride] registered an IC50 of 7.04 nM.
`C=Cc1cc2c(s1)CCc1ccccc1C2=C1CCN(C)CC1` [Compound 112, 2-Vinyl-4-(1-methylpiperidin-4-ylidene)-9,10-dihydro-4H-1-thiabenzo[f]azulene] yielded an IC50 of 1.94 nM.
Then `CC(O)CNC(=O)c1cc2c(s1)CCc1ccccc1C2=C1CCN(C)CC1` (centres unmarked) [Compound 70, N-(2-Hydroxypropyl)-{[4-(1-methylpiperidin-4-ylidene)-9,10-dihydro-4H-1-thiabenzo[f]azulen-2-yl]}carboxamide], with 93.3 nM; and `COC(=O)CCCc1ccc2c(c1)C(=C1CCN(C)CC1)c1sccc1CO2` [Compound 123, Methyl 4-[4-(1-methylpiperidin-4-ylidene)-4,10-dihydro-9-oxa-3-thiabenzo[f]azulen-6-yl]butyrate hydrochloride], with 3.12 nM.
Then `COC(=O)CCc1ccc2c(c1)C(=C1CCN(CCNS(C)(=O)=O)CC1)c1sccc1CO2` [Compound 195, Methyl 3-{4-[1-(2-methanesulfonylaminoethyl)piperidin-4-ylidene]-4,10-dihydro-9-oxa-3-thiabenzo[f]azulen-6-yl}propionate hydrochloride], with 11.7 nM; and `CCOC(=O)COCCN1CCC(=C2c3ccccc3CCc3sc(C(=O)OCC)cc32)CC1` [Compound 110, Ethyl {4-[1-(2-ethoxycarbonylmethoxyethyl)piperidin-4-ylidene]-9,10-dihydro-4H-1-thiabenzo[f]azulen-2-yl}carboxylate hydrochloride], with 23.4 nM.
With `CC(CO)NC(=O)c1cc2c(s1)CCc1ccccc1C2=C1CCN(C)CC1` (centres unmarked) [Compound 71, N-(1-Hydroxyprop-2-yl)-{[4-(1-methylpiperidin-4-ylidene)-9,10-dihydro-4H-1-thiabenzo[f]azulen-2-yl]}carboxamide] the figure was 62 nM.
`CCOC(=O)c1ccc2c(c1)C(=C1CCN(C)CC1)c1sccc1CC2` [Compound 115, Ethyl 4-(1-methylpiperidin-4-ylidene)-9,10-dihydro-4H-3-thiabenzo[f]azulene-6-carboxylate] yielded a 50% inhibitory concentration (IC50) of 16.6 nM.
With `CC(=O)NCc1cc2c(s1)CCc1ccccc1C2=C1CCN(C)CC1` [Compound 20, 2-Acetylaminomethyl-4-(1-methylpiperidin-4-ylidene)-9,10-dihydro-4H-1-thiabenzo[f]azulene hydrochloride] the figure was 15.2 nM.
Then `CCOC(=O)C=Cc1cc2c(s1)C(=O)Cc1ccccc1C2=C1CCN(C)CC1` [Compound 47, Ethyl 3-[4-(1-methylpiperidin-4-ylidene)-10-oxo-9,10-dihydro-4H-1-thiabenzo[f]azulen-2-yl]acrylate], with 29.3 nM; and `CCOC(=O)Cc1cc2c(s1)C(=C1CCN(C)CC1)c1ccccc1CC2` [Compound 23, Ethyl[4-(1-methylpiperidin-4-ylidene)-9,10-dihydro-4H-3-thiabenzo[f]azulen-2-yl]acetate hydrochloride], with 3.5 nM.
`COC(=O)Cc1ccc2c(c1)C(=C1CCN(C)CC1)c1ccsc1CO2` [Compound 116, Methyl[4-(1-methylpiperidin-4-ylidene)-4,10-dihydro-9-oxa-1-thiabenzo[f]azulen-6-yl]acetate hydrochloride]: the IC50 turned out to be 3.95 nM.
As to `CCOC(=O)c1ccc2c(c1)C(=C1CCN(CC)CC1)c1sccc1CC2` [Compound 160, Ethyl 4-(1-ethylpiperidin-4-ylidene)-9,10-dihydro-4H-3-thiabenzo[f]azulene-6-carboxylate], the half-inhibitory concentration (IC50) was determined as 5.58 nM.
